The values that follow come from patent publication US7125881B2, “Use of pyrimidine—or triazine—2 carbonitiles for treating diseases associated with cysteine prostease activity and novel pyrimidine-2-carbonitile derivatives” (AstraZeneca AB, priority 2002, dated 2006).

Structures can show the parent of a compound that is named as a salt.

On to `COc1c(Nc2ccc(Cl)cc2)nc(C#N)nc1N1CCNCC1` (as salt: trifluoroacetate) [Example 44, 4-[(4-Chlorophenyl)amino]-5-methoxy-6-piperazin-1-ylpyrimidine-2-carbonitrile], for which the melting point (usually the temperature, or range, at which the solid turns liquid) turned out to be 230 °C.

For `COc1c(Nc2ccc(Cl)cc2)nc(C#N)nc1N1CC[C@H](N)C1` (as salt: trifluoroacetate) [Example 46, 4-[(3S)-3-Aminopyrrolidin-1-yl]-6-[(4-chlorophenyl)amino]-5-methoxypyrimidine-2-carbonitrile], the melting point lay in the range of 345 to 347 °C.

For `COc1c(Nc2ccc(Cl)cc2)nc(C#N)nc1N1CCN(CCCN(C)C)CC1` (as salt: trifluoroacetate) [Example 47, 4-[(4-Chlorophenyl)amino]-6-{4-[3-(dimethylamino)propyl]piperazin-1-yl}-5-methoxypyrimidine-2-carbonitrile], the melting point lay in the range of 210 to 212 °C.

On to `COc1c(Nc2ccc(Cl)cc2)nc(C#N)nc1N1CCOCC1` [Example 45, 4-[(4-Chlorophenyl)amino]-5-methoxy-6-morpholin-4-ylpyrimidine-2-carbonitrile], for which the melting point was determined as 176 °C.

In turn, `COc1c(Nc2ccc(Cl)cc2)nc(C#N)nc1N(C)C` [Example 48, 4-[(4-Chlorophenyl)amino]-6-(dimethylamino)5-methoxypyrimidine-2-carbonitrile] came in with a melting point of 173 °C.

`COc1c(Nc2ccc(Cl)cc2)nc(C#N)nc1N1CCNC(=O)C1` [Example 49, 4-[(4-Chlorophenyl)amino]-5-methoxy-6(3-oxopiperazin-1-yl)pyrimidine-2-carbonitrile] showed a melting point of 244 °C.

In turn, `N#Cc1nc(Nc2ccc(Cl)cc2)c(N)c(N2CCOCC2)n1` [Example 52, 5-Amino-4-[(4-chlorophenyl)amino]-6-morpholin-4-ylpyrimidine-2-carbonitrile] displayed a melting point of 253 to 254 °C.

In the case of `CCNc1nc(C#N)nc(Nc2ccc(Cl)cc2)c1N` [Example 53, 5-Amino-4[(4-Chlorophenyl)amino]-6(ethylamino)pyrimidine-2-carbonitrile], the melting point lay within 211 to 212 °C.
